Literature values in US20100303937A1, “NOVEL COMPOSITION TO INCREASE TESTOSTERONE LEVELS” (priority 2009, published 2010).

Settings: humans; prior art U.S. Pat. No. 5,880,117

SMILES: C[C@]12CC[C@H]3[C@@H](CCC4=C[C@@H](O)CC[C@@]43C)[C@@H]1CC[C@@H]2O [4-androstene-3β, 17β-diol]
- time within which concentration peaks after administration: ≤ 90 min
